Data taken from PubChem BioAssay (NCI).
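In this assay, cells in 96-well plates receive the compound at five concentrations for 48 hours. Endpoints are linearly interpolated between the surrounding concentrations. At the GI50, growth is halved. At the TGI there is no net growth.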

How the values were obtained:
Assay in all cases: NCI-60 cell line screen, 48 h
[1] = tested on: EKVX NSCLC
[2] = tested on: 786-0 renal
[3] = tested on: SF-295 CNS
[4] = tested on: MALME-3M melanoma
[5] = tested on: SF-268 CNS
[6] = tested on: HL-60(TB) leukemia
[7] = tested on: ACHN renal
[8] = tested on: K-562 leukemia
[9] = tested on: SW-620 colon
[10] = tested on: LOX IMVI melanoma

SMILES | TGI [1] [µM] | TGI [2] [µM] | TGI [3] [µM] | TGI [4] [µM] | TGI [5] [µM] | TGI [6] [µM] | TGI [7] [µM] | TGI [8] [µM] | TGI [9] [µM] | TGI [10] [µM] | GI50 [9] [µM] | GI50 [1] [µM] | GI50 [2] [µM] | GI50 [3] [µM] | GI50 [4] [µM] | GI50 [7] [µM] | GI50 [10] [µM] | GI50 [8] [µM] | GI50 [5] [µM] | GI50 [6] [µM]
CCCN(CCC)c1c([N+](=O)[O-])cc(C(=O)N(CCO)CCO)cc1[N+](=O)[O-] | > 100 | > 100 | > 100 | > 100 | > 100 | > 100 | > 100 | > 100 | – | – | – | – | – | – | – | – | – | – | – | –
COc1cccc2c1C(=O)OC2c1cccc2ccccc12 (stereo not drawn) | > 100 | > 100 | > 100 | > 100 | > 100 | > 100 | > 100 | > 100 | > 100 | > 100 | – | – | – | – | – | – | – | – | – | –
S=C=NCCc1ccccc1 | 30.4 | 1.05 | 3.47 | 2.51 | 3.65 | 2.65 | 3 | > 64.1 | 1.08 | 0.66 | – | – | – | – | – | – | – | – | – | –
CC(C)(C)OC(=O)c1cccnc1/C=N/O | > 100 | > 100 | > 100 | > 100 | > 100 | > 100 | > 100 | > 100 | > 100 | > 100 | – | – | – | – | – | – | – | – | – | –
N#Cc1c(N)nc(NCc2ccccc2)c(C#N)c1-c1ccc(Cl)cc1Cl | > 100 | > 100 | > 100 | > 100 | 1.18 | > 100 | > 100 | > 100 | > 100 | > 100 | 74.4 | > 100 | > 100 | > 63.9 | > 63.1 | > 100 | > 100 | > 100 | – | –
O=c1[nH]c(=O)n(C2OC(CO)C(O)C2O)cc1OCC(F)(F)F (stereo not drawn) | > 100 | > 100 | > 100 | > 100 | > 100 | > 100 | > 100 | > 100 | > 100 | > 100 | – | – | – | – | – | – | – | – | – | –
COc1ccc(C(=O)N/N=C/c2c(C)n(C)n(-c3ccccc3)c2=O)cc1 | > 100 | > 100 | > 100 | > 100 | > 100 | > 100 | > 100 | > 100 | > 100 | > 100 | – | – | – | – | – | – | – | – | – | –
CC(=O)OC1CC[C@@]2(C)C(CC[C@]3(C)C2CC=C2[C@@H]4C(C)[C@H](C)CCC4(C)CCC23C)[C@@]1(C)C(=O)O (stereo partly drawn) | 43.3 | 52.9 | 35.5 | 49 | 60.5 | 63.5 | 36.8 | 86.9 | 55.5 | 51.7 | – | – | – | – | – | – | – | – | – | –
C#COc1cccc(Nc2ncnc3cc(NC(=O)[C@H](C)Cl)ccc23)c1 | > 62.5 | > 62.5 | 61.1 | > 62.5 | > 62.5 | 3.19 | > 62.5 | > 62.5 | > 62.5 | > 62.5 | 2.58 | 17.4 | 3.24 | 2.28 | 4.07 | 3.05 | 2.54 | 2.03 | 4.3 | 1.1
c1ccc([As]=[As]c2ccccc2)cc1 (stereo not drawn) | – | 3.19 | 5.75 | 3.23 | 2.45 | 4.19 | 2.65 | 2.1 | 2.02 | 0.653 | 0.586 | – | 1.28 | 2.27 | 1.29 | 1.28 | 0.117 | 0.311 | 0.886 | 1.19
COC(=O)/C=c1\s/c(=C\C(=O)OC)c2ccccc12 | > 100 | > 100 | > 100 | > 100 | > 100 | > 100 | > 100 | > 100 | > 100 | > 100 | – | – | – | – | – | – | – | – | – | –
CSCCCNC(=O)c1csc(-c2csc(CCNC(=O)CNC(=O)CNC(=O)OC(C)(C)C)n2)n1 | > 100 | > 100 | > 100 | > 100 | > 100 | > 100 | > 100 | > 100 | > 100 | > 100 | – | – | – | – | – | – | – | – | – | –
C#CCN(C(=O)C(F)(F)F)c1ccc(C(=O)c2ccc(N(CC#C)C(=O)C(F)(F)F)cc2)cc1 | > 100 | > 100 | > 100 | > 100 | > 100 | 40.3 | > 100 | 62.9 | > 100 | – | – | – | – | – | – | – | – | – | – | –
COc1cccc(C2C3=C(COC3=O)N(CCO)c3cc4c(cc32)OCO4)c1 (stereo not drawn) | > 50 | > 50 | – | > 50 | 49.2 | 0.352 | > 50 | > 18.7 | > 50 | > 50 | 0.229 | 1.03 | 0.37 | 0.157 | – | 3.92 | 0.451 | 0.155 | 1.53 | 0.132
CCCCCCCCCCCCCC(=O)CSCCNC(=O)CCNC(=O)[C@@H](O)C(C)(C)COP(=O)(O)OP(=O)(O)OCC1OC(n2cnc3c(N)ncnc32)C(O)C1OP(=O)(O)O (stereo partly drawn) | 41.3 | 30.1 | 27.3 | 34.6 | 47.7 | 51.4 | 38 | – | 55.5 | 37.2 | – | – | – | – | – | – | – | – | – | –
Cc1c(C(N)=O)sc2c1c(=O)n(Cc1ccccc1)c1nnc(-c3ccc(Br)cc3)n21 | 21.6 | 5.73 | 11.8 | 13.7 | 13.4 | 38.8 | 12.3 | 20.4 | 18.9 | 10.2 | 2.98 | 3.11 | 2.09 | 1.01 | 2.94 | 1.46 | 1.27 | 3.09 | 1.4 | 4.42
C/C=C/COC(=O)CO[N+](=O)[O-] | > 100 | > 100 | > 100 | > 100 | > 100 | > 100 | > 100 | > 100 | > 100 | > 100 | – | – | – | – | – | – | – | – | – | –
N#CN1CC[C@H](C(=O)Nc2cc3cc(C(N)=O)ccc3cn2)C1 | 6.87 | – | > 47.7 | 0.152 | 24.3 | 0.443 | – | > 54.2 | > 84.9 | > 54.9 | 0.0969 | 0.258 | 0.222 | 0.392 | 0.0239 | 0.333 | 0.117 | 0.131 | 0.0732 | 0.109
